Experimental data published in ChEMBL document CHEMBL3243990, “Hydantoins as antitumor agents” (1977).
Calls of active or inactive are those of the source. The rule behind the calls is not given here.

Key:
L1210 = test: Antitumor activity against mouse L1210 cells allografted in mouse relative to control; assay type: functional, cell-based
P388 = test: Antitumor activity against mouse P388 cells allografted in mouse relative to control; assay type: functional

SMILES | Activity (L1210) | Activity (P388) | T/C (P388) [%]
CC1(c2cccs2)C(=O)N(Cl)C(=O)N1Cl (centres undefined) | inactive | – | –
CC(=O)N1C(=O)NC(=O)C1(C)c1ccc(Cl)s1 (centres undefined) | inactive | – | –
CC(=O)N1C(=O)NC(=O)C1(C)c1ccco1 (centres undefined) | inactive | – | –
CC1(c2ccc(Cl)s2)NC(=O)NC1=O (centres undefined) | inactive | – | –
O=C1NC(=O)C(c2cccs2)(c2cccs2)N1 | inactive | – | –
CC1(c2cccs2)NC(=O)NC1=O (centres undefined) | inactive | – | –
O=C1N(Cl)C(=O)C(c2ccc(C(F)(F)F)cc2)(c2ccc(C(F)(F)F)cc2)N1Cl | inactive | inactive | –
O=C1NC(=O)C2(CSSC2)N1 | inactive | – | –
CN1C(=O)NC(c2ccc(Cl)cc2)(c2ccc(Cl)cc2)C1=O | inactive | inactive | –
CC1(c2ccco2)NC(=O)NC1=O (centres undefined) | inactive | – | –
O=C1NC(=O)C(c2ccc(Cl)cc2)(c2ccc(Cl)cc2)N1 | inactive | – | –
CC1(c2cccs2)NC(=O)N(C(=O)CCl)C1=O (centres undefined) | inactive | – | –
CN1C(=O)NC(C)(c2cccs2)C1=O (centres undefined) | inactive | – | –
CC1(c2ccc(Cl)s2)C(=O)N(Cl)C(=O)N1Cl (centres undefined) | inactive | – | –
O=C1NC(c2cccs2)(c2cccs2)C(=O)N1Cl | inactive | – | –
O=C1NC(=O)C(c2ccc(C(F)(F)F)cc2)(c2ccc(C(F)(F)F)cc2)N1 | inactive | inactive | –
CC1(c2cccs2)NC(=O)N(Cl)C1=O (centres undefined) | inactive | – | –
CC(=O)N1C(=O)NC(=O)C1(c1ccc(Cl)cc1)c1ccc(Cl)cc1 | inactive | inactive | –
CC(=O)N1C(=O)NC(=O)C1(C)c1cccs1 (centres undefined) | inactive | – | –
CC1(c2ccco2)NC(=O)N(C(=O)CCl)C1=O (centres undefined) | inactive | – | –
O=C(CCl)N1C(=O)NC(c2ccc(Cl)cc2)(c2ccc(Cl)cc2)C1=O | inactive | inactive | –
CC(=O)N1C(=O)N(Cl)C(=O)C1(C)c1cccs1 (centres undefined) | inactive | – | –
O=C1N(Cl)C(=O)C(c2ccc(Cl)cc2)(c2ccc(Cl)cc2)N1Cl | inactive | – | 190
CC1(c2ccco2)NC(=O)N(Cl)C1=O (centres undefined) | inactive | – | –
CC(=O)N1C(=O)N(Cl)C(=O)C1(c1ccc(Cl)cc1)c1ccc(Cl)cc1 | inactive | inactive | –
CC(=O)N1C(=O)NC(c2ccc(Cl)cc2)(c2ccc(Cl)cc2)C1=O | inactive | inactive | –
